In brackets after ≈: the same amount, converted by molar mass.
Columns and labels:
CYP3A4 = CYP3A4 (Homo sapiens, UniProt P08684); assay: Effect of voxelotor on PK of CYP3A4 probe substrate midazolam in healthy subjects; conditions: human, in vivo
Method: (§1) During Period 1, subjects received a single dose of caffeine 100 mg, warfarin sodium 10 mg+vitamin K 10 mg, omeprazole 20 mg, and midazolam hydrochloride 2 mg on Day 1. During Period 2, subjects received voxelotor 900 mg QD on Days 1 and 2 followed by 600 mg QD on Day 3, a single dose of caffeine 100 mg, warfarin sodium 10 mg+vitamin K 10 mg, omeprazole 20 mg, and midazolam hydrochloride 2 mg on Day 4, and voxelotor 600 mg QD on Days 4 through 7.
(§2) Whole blood and plasma concentrations of voxelotor and plasma concentrations of caffeine, paraxanthine, S-warfarin, omeprazole, 5-hydroxyomeprazole, midazolam, and 1-hydroxymidazolam were determined using validated assays.

CYP1A2 = CYP1A2 (Homo sapiens, UniProt P05177); assay: Effect of voxelotor on PK of CYP1A2 probe substrate caffeine in healthy subjects; format: in vivo
Chain of CYP1A2 (P05177 whole entry): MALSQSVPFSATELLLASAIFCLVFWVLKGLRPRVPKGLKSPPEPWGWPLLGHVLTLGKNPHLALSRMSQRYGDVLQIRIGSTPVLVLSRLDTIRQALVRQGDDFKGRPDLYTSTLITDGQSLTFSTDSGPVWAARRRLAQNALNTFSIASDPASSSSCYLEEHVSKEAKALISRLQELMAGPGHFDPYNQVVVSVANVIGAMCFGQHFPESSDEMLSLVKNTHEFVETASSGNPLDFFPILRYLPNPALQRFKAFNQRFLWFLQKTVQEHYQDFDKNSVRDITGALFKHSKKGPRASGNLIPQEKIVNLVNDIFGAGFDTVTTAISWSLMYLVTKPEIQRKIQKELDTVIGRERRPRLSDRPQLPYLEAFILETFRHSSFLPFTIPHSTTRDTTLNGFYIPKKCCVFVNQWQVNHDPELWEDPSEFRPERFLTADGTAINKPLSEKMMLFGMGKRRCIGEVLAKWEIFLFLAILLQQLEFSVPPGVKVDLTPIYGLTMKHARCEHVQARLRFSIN
Method: as §1, §2

CYP2C9 = target: T1, CYP2C9 (Homo sapiens, UniProt P11712); assay: Effect of voxelotor on PK of CYP2C9 probe substrate S-warfarin in healthy subjects; format: in vivo
T1 construct: endogenous in cells; host or cells: healthy subjects, in vivo
T1 sequence (P11712 whole entry): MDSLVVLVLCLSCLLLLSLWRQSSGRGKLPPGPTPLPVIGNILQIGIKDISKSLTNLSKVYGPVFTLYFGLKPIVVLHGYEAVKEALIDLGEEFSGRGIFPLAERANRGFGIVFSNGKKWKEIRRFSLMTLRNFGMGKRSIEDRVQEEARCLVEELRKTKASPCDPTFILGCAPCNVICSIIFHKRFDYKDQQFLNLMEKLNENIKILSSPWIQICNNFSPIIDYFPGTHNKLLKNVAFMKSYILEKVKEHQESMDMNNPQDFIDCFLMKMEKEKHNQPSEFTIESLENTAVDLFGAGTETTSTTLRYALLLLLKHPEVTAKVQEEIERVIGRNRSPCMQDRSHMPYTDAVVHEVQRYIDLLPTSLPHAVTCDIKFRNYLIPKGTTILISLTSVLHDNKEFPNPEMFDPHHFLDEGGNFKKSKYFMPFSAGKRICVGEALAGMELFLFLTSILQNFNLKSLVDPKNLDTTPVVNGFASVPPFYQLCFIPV
Method: as §1, §2

[1] = Probe substrate study in healthy subjects: voxelotor exposure and safety; format: in vivo, human; conditions: alone and in combination with caffeine, warfarin sodium, omeprazole and midazolam hydrochloride
Method: as §1, §2

[2] = Clinical trials experience (HOPE trial): safety of OXBRYTA; format: in vivo, human
Method: The safety of OXBRYTA was evaluated in the HOPE trial based upon 88 patients who received OXBRYTA 1,500 mg and 91 patients who received placebo orally once daily [see Clinical Studies (14)]. Seventy-four patients received OXBRYTA 1,500 mg once daily for ≥24 weeks and 65 patients for ≥48 weeks.
In patients who received OXBRYTA 1,500 mg once daily the median age was 24 years (range: 12-59); 65% female; 66% Black or African American and 23% Arab/Middle Eastern; and 65% receiving hydroxyurea at baseline.

pregnant rats = assay: Pre- and postnatal development study in pregnant rats; format: in vivo, rat
Method: In a pre- and postnatal development study, voxelotor was administered orally to pregnant rats at 15, 50 and 250 mg/kg/day (gestation day 6 through lactation day 20). Maternal gestational body weights were decreased at 250 mg/kg/day, which continued to the end of lactation.

[3] = Drug substance properties (solubility, hygroscopicity); format: physicochemical; conditions: crystalline Form II free base
Text: Voxelotor, the active drug substance, is a white-to-yellow-to-beige compound in crystalline Form II of its free base. It is non-hygroscopic.

hemoglobin S (HbS) = hemoglobin S (HbS) (Homo sapiens, UniProt P69905); assay: Mechanism of action: binding to HbS and HbS polymerization
Chain of hemoglobin S (HbS) (P69905 whole entry): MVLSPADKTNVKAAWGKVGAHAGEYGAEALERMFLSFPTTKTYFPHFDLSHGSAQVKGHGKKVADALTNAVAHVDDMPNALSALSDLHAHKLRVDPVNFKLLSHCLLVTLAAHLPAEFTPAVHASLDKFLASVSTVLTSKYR
Chain of hemoglobin S (HbS) (P68871 with tags, fused parts or gaps E7V partner limits assumed): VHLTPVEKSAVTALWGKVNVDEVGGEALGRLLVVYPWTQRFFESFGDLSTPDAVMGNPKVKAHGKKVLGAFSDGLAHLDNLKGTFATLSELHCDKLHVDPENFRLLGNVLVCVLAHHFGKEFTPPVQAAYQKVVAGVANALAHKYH

Hb = assay: Pharmacodynamics: Hb oxygen affinity (p50) and clinical measures of hemolysis; format: in vivo
[4] = PK in specific populations (age, sex, body weight, pediatric, renal impairment); format: in vivo, human
Method: The pharmacokinetic parameters of voxelotor were similar in pediatric patients 12 to <17 years and adults.
Following a single 900 mg dose of voxelotor, whole blood exposures in subjects with severe renal impairment (eGFR<30 mL/min/1.73 m^2) were 25% lower compared to healthy controls.
OXBRYTA has not been evaluated in patients with end stage renal disease requiring dialysis.

P-gp [5] = target: T2, P-gp (Homo sapiens, UniProt P08183); assay: Effect of voxelotor on P-gp: concomitant digoxin; format: in vivo; conditions: concomitant use
T2 sequence (P08183 whole entry): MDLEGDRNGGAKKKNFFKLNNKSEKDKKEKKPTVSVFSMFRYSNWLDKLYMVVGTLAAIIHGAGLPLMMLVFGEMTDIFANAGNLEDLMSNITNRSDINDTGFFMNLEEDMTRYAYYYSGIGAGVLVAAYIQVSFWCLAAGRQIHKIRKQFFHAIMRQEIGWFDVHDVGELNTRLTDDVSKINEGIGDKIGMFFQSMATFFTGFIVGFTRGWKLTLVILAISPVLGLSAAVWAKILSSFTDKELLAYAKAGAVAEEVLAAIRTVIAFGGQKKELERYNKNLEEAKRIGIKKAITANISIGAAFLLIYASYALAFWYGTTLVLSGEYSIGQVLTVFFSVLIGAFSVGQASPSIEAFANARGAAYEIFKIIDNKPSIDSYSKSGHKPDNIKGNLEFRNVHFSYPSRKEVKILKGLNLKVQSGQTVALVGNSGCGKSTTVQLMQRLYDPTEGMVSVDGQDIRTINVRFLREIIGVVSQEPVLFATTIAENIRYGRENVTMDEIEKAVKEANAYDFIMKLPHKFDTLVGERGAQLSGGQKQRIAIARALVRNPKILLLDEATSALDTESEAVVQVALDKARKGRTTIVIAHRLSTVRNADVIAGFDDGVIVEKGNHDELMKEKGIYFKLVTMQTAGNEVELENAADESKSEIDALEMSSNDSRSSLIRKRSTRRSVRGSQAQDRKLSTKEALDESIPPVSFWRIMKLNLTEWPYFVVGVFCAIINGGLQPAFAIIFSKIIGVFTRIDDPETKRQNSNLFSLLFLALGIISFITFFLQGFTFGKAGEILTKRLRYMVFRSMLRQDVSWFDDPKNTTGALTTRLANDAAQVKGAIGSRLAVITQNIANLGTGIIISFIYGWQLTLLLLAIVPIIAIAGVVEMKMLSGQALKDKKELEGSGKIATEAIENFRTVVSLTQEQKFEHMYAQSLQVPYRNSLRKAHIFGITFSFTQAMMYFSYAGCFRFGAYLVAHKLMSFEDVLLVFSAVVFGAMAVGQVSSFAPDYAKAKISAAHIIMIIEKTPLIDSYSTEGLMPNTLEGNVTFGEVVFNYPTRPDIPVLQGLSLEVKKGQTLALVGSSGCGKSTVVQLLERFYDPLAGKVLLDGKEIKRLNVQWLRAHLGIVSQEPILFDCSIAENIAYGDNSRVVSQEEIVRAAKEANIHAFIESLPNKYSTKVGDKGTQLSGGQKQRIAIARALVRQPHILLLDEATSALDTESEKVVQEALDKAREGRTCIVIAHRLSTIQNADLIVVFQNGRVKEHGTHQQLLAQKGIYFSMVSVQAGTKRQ

CYP2B6 = CYP2B6 (Homo sapiens, UniProt P20813); assay: In vitro studies: CYP2B6; format: in vitro ADME
Chain of CYP2B6 (P20813 whole entry): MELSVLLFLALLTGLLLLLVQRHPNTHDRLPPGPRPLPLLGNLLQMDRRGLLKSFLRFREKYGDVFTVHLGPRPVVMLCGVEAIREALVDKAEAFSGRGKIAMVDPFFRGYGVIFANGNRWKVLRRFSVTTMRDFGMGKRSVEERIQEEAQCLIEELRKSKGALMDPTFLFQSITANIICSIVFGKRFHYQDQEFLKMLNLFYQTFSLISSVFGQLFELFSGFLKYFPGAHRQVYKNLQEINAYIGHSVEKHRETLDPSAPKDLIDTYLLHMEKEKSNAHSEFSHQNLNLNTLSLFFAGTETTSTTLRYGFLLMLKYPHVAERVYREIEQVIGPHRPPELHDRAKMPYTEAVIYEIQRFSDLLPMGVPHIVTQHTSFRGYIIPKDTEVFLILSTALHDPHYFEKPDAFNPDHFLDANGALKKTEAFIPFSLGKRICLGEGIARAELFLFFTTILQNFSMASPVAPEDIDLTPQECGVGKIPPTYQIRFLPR

P-gp [6] = target: T2, P-gp; assay: In vitro transporter studies: P-gp; format: in vitro ADME
OATP1B1 = OATP1B1 (Homo sapiens, UniProt Q9Y6L6); assay: In vitro transporter studies: OATP1B1; format: in vitro ADME
Chain of OATP1B1 (Q9Y6L6 whole entry): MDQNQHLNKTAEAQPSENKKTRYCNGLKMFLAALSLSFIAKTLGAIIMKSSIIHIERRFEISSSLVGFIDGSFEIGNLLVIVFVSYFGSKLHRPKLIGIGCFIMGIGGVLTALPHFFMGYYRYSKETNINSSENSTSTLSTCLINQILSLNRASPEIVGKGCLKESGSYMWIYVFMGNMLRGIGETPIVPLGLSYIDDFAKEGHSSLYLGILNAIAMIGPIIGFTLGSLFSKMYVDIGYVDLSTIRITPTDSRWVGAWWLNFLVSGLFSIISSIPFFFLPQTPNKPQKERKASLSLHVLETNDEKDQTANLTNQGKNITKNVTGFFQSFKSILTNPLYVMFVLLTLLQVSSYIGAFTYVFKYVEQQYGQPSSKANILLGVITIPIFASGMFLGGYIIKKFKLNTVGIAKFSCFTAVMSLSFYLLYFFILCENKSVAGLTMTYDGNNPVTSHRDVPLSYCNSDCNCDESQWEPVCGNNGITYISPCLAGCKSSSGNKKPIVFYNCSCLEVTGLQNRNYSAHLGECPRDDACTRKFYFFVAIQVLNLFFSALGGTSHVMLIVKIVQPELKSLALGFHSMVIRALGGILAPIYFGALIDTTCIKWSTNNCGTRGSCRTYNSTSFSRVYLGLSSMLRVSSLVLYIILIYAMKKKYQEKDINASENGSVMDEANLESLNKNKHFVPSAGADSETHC

OATP1B3 = OATP1B3 (Homo sapiens, UniProt Q9NPD5); assay: In vitro transporter studies: OATP1B3; format: in vitro ADME
Chain of OATP1B3 (Q9NPD5 whole entry): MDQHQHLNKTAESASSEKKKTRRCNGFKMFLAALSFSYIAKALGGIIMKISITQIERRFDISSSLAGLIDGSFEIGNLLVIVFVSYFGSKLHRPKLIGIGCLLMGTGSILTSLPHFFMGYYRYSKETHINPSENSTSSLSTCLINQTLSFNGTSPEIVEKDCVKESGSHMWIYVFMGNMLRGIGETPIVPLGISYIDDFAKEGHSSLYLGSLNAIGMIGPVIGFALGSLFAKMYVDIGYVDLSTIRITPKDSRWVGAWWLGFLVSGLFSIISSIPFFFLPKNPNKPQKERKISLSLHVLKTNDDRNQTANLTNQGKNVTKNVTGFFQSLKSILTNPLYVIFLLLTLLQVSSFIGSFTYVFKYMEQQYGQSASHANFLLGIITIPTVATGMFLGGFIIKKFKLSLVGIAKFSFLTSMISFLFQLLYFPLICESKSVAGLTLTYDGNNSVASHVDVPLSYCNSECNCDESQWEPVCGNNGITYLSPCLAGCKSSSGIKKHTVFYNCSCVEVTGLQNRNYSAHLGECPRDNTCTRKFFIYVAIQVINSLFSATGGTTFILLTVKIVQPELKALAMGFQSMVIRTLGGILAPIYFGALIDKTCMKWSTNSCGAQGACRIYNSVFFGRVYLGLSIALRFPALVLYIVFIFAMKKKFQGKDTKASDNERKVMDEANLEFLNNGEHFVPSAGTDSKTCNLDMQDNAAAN

OCT2 = OCT2 (Homo sapiens, UniProt O15244); assay: In vitro transporter studies: OCT2; format: in vitro ADME
Chain of OCT2 (O15244 whole entry): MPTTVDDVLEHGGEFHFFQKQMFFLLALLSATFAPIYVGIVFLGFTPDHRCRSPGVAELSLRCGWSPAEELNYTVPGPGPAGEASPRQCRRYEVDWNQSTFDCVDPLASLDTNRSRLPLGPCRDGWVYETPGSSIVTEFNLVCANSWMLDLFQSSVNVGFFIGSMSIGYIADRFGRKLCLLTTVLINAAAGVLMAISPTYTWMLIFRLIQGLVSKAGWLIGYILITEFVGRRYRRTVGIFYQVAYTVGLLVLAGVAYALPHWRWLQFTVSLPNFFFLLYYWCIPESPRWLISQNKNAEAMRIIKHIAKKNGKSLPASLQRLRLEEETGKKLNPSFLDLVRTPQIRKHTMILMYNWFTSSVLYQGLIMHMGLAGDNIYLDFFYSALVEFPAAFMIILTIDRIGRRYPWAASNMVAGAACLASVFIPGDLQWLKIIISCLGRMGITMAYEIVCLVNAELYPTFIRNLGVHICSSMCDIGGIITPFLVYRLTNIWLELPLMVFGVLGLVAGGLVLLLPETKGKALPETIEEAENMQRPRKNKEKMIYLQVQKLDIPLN

RasH2 transgenic mice = assay: 26-week carcinogenicity study; format: in vivo, mouse; conditions: 26-week study; oral doses of 30, 150, or 500 mg/kg/day
rats = assay: Fertility and early embryonic development study; format: in vivo, rat
Method: In a fertility and early embryonic development study, voxelotor was administered orally to rats at 15, 50, and 250 mg/kg/day. Males were dosed 28 days prior to mating through cohabitation and females were dosed 14 days prior to mating through gestation Day 7.

[7] = healthy subjects, multiple doses of voxelotor 900/600 mg QD

With `CC(C)n1nccc1-c1ncccc1COc1cccc(O)c1C=O` [voxelotor, 2-hydroxy-6-((2-(1-isopropyl-1H-pyrazol-5-yl)pyridin-3-yl)methoxy)benzaldehyde] the “inhibition of CYP3A4 in vivo” value (CYP3A4) was “inhibits”, the “effect of voxelotor on PK of CYP1A2 probe substrate (caffeine)” value (CYP1A2; [7]) was “no clinically meaningful effect” and the “inhibition of CYP1A2 in vivo” value (CYP1A2; human, in vivo) was “not”. For the same compound, the “effect of voxelotor on PK of CYP2C9 probe substrate (S-warfarin)” value (CYP2C9; [7]) was “no clinically meaningful effect”, the “inhibition of CYP2C9 in vivo” value (CYP2C9; human, in vivo) was “not” and the safety and tolerability [1] was “safe and well tolerated”. For the same compound, the “Adverse reaction: Abdominal Pain (grouped PTs)” value ([2]; HOPE, 1,500 mg (N = 88)) was 17 (19%) n (%), the “Adverse reaction: Diarrhea” value ([2]; HOPE, 1,500 mg (N = 88)) was 18 (20%) n (%) and the “Adverse reaction: Fatigue” value ([2]; HOPE, 1,500 mg (N = 88)) was 12 (14%) n (%). The “Adverse reaction: Headache” value ([2]; HOPE, 1,500 mg (N = 88)) was 23 (26%) n (%), the “Adverse reaction: Nausea” value ([2]; HOPE, 1,500 mg (N = 88)) was 15 (17%) n (%) and the “Adverse reaction: Pyrexia” value ([2]; HOPE, 1,500 mg (N = 88)) was 11 (12%) n (%). The “Adverse reaction: Rash (grouped PTs)” value ([2]; HOPE, 1,500 mg (N = 88)) was 12 (14%) n (%), the “patients with serious adverse reactions” value ([2]; HOPE, 1,500 mg once daily, 3/88) was 3% and the “permanent discontinuation due to an adverse reaction (Grades 1-4)” value ([2]; HOPE, 1,500 mg once daily, 4/88) was 5%. For the same compound, the “dosage modifications (dose reduction or dosing interruption) due to an adverse reaction” value ([2]; HOPE, 36/88) was 41%, the “patients with serious hypersensitivity reactions” value ([2]; patients treated) was less than 1% and the findings in offspring (pregnant rats; maternal dose 250 mg/kg/day, throughout lactation, weaning and maturation) was “reduced survival and reduced body weights”. The “maternal gestational body weights” value (pregnant rats; pregnant rats, 250 mg/kg/day oral, gestation day 6 through lactation day 20) was “decreased”, the “exposure at 250 mg/kg/day relative to exposure in patients at the recommended dose” value (pregnant rats; rats, maternal dose 250 mg/kg/day) was “approximately 2.8 times” and the hygroscopicity [3] was “non-hygroscopic”. The “solubility in common organic solvents such as acetone and toluene” value [3] was “highly soluble”, the solubility ([3]; water) was roughly 30 µg/mL (≈ 88.9 µM) and the “inhibition of HbS polymerization” value (hemoglobin S (HbS)) was “dose-dependent inhibition of HbS polymerization”. The “clinical measures of hemolysis (indirect bilirubin and % reticulocytes)” value (Hb; in vivo) was “dose-dependent reduction”, the “Hb oxygen affinity as determined by the change in p50” value (Hb; linearly correlated with voxelotor exposure) was “dose-dependent increase in Hb oxygen affinity” and the “differences in pharmacokinetics based on age (12 to 59 years), sex, body weight (28 to 135 kg), or mild to severe renal impairment (CLcr 15-89 mL/min)” value ([4]; in vivo) was “No clinically significant differences”. For the same compound, the “effect of renal function on the excretion of voxelotor” value ([4]; in vivo) was “no clinically significant effect”, the “pharmacokinetic parameters in pediatric patients 12 to <17 years vs adults” value ([4]; in vivo) was “similar” and the “whole blood exposures lower compared to healthy controls” value ([4]; severe renal impairment (eGFR<30 mL/min/1.73 m^2), single 900 mg dose) was 25%. For the same compound, the “unbound plasma concentrations vs healthy controls” value ([4]; severe renal impairment, single 900 mg dose) was “comparable”, the “effect on digoxin (a P-gp substrate)” value (P-gp [5]) was “did not alter digoxin to a clinically relevant extent” and the “induction of CYP2B6” value (CYP2B6) was “inducer”. For the same compound, the “inhibition of CYP2B6” value (CYP2B6) was “reversible and time-dependent inhibitor”, the “inhibition of P-gp” value (P-gp [6]) was “not an inhibitor” and the “substrate of P-gp” value (P-gp [6]) was “not a substrate”. For the same compound, the “inhibition of OATP1B1” value (OATP1B1) was “not an inhibitor”, the “substrate of OATP1B1” value (OATP1B1) was “not a substrate” and the “inhibition of OATP1B3” value (OATP1B3) was “not an inhibitor”. The “substrate of OATP1B3” value (OATP1B3) was “not a substrate”, the “inhibition of OCT2” value (OCT2) was “not an inhibitor” and the carcinogenicity (RasH2 transgenic mice) was “not carcinogenic”. For the same compound, the “exposure at 250 mg/kg/day relative to human exposure at 1,500 mg/day” value (rats) was “approximately 5 times”, the sperm motility (rats; 250 mg/kg/day, changes in sperm morphology also occurred) was “decreased” and the “effect on fertility or reproductive function” value (rats; oral 15, 50, 250 mg/kg/day) was “no effect on fertility or reproductive function”.

Reference: US20230015823A1, “METHODS OF ADMINISTERING VOXELOTOR” (Global Blood Therapeutics, Inc., priority 2019, published 2023)
